Measurements from ChEMBL document CHEMBL1142734, “Biological properties of D- and L-1-deoxyazasugars” (J Med Chem, 2005).

Legend:
[1] = target: T1, Beta-mannosidase (Rattus norvegicus) (UniProt Q4FZV0); assay: Percent inhibition of beta-mannosidase of rat epididymis at 1000 uM
T1 sequence (whole entry): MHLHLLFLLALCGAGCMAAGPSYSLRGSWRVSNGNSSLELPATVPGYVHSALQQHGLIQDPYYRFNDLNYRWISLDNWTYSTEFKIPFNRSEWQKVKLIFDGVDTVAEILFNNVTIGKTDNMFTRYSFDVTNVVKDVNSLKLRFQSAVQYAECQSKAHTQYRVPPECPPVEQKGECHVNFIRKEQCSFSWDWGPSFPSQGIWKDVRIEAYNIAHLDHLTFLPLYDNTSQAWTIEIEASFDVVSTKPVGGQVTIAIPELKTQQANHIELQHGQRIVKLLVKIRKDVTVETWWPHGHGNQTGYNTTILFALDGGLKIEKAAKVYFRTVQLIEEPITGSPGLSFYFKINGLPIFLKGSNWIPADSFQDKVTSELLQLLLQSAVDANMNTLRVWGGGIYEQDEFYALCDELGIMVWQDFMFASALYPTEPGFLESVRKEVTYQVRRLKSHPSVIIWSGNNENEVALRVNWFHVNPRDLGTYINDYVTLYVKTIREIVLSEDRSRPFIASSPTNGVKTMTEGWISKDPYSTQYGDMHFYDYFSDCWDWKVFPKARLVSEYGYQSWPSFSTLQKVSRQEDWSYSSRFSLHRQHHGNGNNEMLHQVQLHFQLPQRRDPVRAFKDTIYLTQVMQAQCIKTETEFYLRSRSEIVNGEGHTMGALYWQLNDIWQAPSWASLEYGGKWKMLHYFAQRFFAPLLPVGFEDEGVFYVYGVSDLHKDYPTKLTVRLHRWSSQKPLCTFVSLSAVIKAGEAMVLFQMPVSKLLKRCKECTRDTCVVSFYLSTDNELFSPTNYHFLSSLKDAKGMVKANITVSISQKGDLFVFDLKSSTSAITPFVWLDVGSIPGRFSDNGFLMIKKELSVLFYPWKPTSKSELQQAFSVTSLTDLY

[2] = target: Maltase-glucoamylase (Homo sapiens) (UniProt O43451); details: 1000 uM
[3] = target: T2, Lysosomal alpha-mannosidase (Homo sapiens) (UniProt O00754); assay: Percent inhibition of human alpha-mannosidase at 1000 uM
T2 sequence (whole entry): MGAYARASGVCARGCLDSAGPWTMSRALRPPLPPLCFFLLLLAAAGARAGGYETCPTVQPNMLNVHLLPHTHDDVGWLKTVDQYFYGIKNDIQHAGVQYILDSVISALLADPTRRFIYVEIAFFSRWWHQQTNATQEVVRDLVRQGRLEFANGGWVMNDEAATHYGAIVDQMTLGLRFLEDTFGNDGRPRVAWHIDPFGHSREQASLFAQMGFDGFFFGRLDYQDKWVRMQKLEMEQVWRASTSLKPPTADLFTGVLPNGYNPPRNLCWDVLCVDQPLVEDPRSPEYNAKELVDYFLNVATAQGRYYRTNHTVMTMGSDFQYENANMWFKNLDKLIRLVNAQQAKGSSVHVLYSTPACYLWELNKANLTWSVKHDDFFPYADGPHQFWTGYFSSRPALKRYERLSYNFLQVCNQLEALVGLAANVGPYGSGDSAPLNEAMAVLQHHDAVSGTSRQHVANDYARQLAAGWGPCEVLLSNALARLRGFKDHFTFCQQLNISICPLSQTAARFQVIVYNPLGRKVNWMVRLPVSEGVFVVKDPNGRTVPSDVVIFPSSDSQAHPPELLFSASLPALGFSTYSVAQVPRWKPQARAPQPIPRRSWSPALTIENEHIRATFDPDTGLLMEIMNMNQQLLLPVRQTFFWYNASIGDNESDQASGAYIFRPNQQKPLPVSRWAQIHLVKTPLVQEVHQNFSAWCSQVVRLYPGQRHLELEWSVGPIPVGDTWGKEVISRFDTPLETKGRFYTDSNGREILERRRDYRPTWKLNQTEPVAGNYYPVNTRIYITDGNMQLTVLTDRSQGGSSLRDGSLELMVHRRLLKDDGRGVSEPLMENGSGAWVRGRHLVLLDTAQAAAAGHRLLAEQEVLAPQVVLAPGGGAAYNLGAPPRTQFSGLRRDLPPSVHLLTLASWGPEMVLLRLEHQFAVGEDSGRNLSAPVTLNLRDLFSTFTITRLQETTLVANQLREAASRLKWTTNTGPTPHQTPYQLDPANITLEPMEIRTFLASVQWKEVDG

[4] = target: T3, Alpha-galactosidase C (Aspergillus niger) (UniProt Q9UUZ4); assay: Percent inhibition of alpha-galactosidase of Aspergillus niger at 1000 uM
T3 sequence (whole entry): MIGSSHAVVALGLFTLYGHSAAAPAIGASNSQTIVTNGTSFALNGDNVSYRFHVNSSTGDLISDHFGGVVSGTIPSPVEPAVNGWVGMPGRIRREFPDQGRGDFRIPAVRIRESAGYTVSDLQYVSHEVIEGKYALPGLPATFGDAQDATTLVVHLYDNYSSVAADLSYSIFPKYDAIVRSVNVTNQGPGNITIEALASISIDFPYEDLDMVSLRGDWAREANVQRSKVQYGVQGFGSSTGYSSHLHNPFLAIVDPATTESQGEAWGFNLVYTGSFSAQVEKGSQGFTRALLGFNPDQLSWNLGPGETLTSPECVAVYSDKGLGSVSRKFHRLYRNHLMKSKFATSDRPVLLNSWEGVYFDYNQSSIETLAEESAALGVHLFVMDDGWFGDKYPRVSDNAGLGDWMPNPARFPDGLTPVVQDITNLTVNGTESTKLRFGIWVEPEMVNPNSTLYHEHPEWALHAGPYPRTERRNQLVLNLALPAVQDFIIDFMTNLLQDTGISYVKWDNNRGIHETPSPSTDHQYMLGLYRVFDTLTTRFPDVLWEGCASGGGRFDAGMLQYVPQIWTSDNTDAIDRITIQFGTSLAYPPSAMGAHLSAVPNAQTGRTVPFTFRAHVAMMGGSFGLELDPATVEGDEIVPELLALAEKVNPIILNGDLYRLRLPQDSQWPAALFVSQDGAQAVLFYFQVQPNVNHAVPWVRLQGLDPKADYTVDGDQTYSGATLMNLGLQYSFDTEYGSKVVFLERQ

[5] = target: Sucrase-isomaltase, intestinal (Rattus norvegicus) (UniProt P23739); details: 1000 uM
[6] = Inhibitory concentration against alpha-galactosidase of coffee bean; set-up: species or system Coffea arabica

Sequence of Maltase-glucoamylase (Homo sapiens) (O43451 whole entry, looked up): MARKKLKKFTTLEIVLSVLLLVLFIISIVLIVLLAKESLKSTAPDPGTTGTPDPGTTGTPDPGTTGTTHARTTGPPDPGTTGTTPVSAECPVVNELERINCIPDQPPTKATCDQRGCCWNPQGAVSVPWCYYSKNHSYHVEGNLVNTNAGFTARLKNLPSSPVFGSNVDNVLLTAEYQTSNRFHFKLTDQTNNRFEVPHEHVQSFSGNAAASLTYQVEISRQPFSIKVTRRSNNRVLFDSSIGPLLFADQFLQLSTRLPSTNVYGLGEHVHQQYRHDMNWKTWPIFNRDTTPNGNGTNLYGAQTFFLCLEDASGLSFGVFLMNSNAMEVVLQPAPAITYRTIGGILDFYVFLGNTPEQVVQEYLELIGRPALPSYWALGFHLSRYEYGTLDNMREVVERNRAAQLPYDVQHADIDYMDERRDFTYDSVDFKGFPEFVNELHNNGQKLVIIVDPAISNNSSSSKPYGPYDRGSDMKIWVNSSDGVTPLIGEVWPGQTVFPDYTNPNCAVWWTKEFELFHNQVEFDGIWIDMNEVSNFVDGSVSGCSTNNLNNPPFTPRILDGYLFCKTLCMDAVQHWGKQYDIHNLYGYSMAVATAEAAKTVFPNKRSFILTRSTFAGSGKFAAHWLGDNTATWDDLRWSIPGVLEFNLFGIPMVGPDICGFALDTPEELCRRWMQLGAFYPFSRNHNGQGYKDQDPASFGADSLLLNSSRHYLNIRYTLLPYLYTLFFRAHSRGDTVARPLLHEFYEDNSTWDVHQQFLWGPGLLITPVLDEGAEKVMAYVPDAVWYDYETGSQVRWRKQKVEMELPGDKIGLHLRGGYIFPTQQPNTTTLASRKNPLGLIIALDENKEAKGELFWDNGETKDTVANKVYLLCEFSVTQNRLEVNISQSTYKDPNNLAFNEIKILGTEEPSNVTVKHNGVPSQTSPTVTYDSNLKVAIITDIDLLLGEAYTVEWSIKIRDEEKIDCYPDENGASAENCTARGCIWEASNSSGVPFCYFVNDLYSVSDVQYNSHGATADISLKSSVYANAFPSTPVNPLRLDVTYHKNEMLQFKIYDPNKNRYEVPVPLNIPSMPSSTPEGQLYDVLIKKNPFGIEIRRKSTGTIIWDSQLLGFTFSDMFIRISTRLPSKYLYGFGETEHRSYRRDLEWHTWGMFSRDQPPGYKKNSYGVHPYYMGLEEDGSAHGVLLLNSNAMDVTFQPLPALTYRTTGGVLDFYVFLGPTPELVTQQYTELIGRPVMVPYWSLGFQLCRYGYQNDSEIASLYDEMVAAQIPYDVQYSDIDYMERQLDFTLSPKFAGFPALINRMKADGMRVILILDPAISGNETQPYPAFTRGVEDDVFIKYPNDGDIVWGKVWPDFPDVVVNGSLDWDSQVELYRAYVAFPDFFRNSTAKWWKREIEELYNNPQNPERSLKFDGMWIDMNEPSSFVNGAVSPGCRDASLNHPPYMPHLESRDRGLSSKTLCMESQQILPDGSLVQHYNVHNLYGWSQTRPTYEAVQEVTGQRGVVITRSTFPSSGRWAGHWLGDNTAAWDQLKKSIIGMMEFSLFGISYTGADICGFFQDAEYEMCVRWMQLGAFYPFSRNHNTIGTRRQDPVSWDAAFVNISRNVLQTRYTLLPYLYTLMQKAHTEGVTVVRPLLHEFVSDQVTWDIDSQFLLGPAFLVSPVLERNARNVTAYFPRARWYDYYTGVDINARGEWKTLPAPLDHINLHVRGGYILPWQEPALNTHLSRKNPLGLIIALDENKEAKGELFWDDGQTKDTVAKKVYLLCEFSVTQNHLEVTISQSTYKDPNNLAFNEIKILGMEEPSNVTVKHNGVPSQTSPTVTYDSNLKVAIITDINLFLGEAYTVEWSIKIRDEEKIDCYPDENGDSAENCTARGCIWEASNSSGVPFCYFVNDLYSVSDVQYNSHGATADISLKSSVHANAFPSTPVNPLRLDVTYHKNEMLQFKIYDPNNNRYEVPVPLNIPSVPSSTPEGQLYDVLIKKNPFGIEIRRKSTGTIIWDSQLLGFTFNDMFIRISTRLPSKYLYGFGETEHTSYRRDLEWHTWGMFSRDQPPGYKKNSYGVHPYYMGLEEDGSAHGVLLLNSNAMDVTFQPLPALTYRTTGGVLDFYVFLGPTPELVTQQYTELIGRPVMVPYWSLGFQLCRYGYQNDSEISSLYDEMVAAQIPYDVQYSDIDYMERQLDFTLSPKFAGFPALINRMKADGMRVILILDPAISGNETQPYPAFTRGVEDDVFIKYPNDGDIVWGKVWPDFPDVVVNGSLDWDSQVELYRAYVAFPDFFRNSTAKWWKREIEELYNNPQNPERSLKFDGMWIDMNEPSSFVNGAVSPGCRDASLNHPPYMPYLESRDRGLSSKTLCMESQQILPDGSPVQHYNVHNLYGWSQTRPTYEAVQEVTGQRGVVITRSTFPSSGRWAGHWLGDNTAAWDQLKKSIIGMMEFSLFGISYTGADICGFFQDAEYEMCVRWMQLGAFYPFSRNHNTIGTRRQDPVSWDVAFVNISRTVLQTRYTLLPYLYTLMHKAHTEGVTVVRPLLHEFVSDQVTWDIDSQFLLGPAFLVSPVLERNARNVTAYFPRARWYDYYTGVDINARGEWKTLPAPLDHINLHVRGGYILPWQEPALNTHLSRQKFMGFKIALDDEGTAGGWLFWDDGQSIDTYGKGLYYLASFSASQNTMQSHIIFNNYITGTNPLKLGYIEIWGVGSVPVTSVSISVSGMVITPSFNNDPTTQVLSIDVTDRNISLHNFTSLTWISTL
Sequence of Sucrase-isomaltase, intestinal (Rattus norvegicus) (P23739 1-1013 limits assumed): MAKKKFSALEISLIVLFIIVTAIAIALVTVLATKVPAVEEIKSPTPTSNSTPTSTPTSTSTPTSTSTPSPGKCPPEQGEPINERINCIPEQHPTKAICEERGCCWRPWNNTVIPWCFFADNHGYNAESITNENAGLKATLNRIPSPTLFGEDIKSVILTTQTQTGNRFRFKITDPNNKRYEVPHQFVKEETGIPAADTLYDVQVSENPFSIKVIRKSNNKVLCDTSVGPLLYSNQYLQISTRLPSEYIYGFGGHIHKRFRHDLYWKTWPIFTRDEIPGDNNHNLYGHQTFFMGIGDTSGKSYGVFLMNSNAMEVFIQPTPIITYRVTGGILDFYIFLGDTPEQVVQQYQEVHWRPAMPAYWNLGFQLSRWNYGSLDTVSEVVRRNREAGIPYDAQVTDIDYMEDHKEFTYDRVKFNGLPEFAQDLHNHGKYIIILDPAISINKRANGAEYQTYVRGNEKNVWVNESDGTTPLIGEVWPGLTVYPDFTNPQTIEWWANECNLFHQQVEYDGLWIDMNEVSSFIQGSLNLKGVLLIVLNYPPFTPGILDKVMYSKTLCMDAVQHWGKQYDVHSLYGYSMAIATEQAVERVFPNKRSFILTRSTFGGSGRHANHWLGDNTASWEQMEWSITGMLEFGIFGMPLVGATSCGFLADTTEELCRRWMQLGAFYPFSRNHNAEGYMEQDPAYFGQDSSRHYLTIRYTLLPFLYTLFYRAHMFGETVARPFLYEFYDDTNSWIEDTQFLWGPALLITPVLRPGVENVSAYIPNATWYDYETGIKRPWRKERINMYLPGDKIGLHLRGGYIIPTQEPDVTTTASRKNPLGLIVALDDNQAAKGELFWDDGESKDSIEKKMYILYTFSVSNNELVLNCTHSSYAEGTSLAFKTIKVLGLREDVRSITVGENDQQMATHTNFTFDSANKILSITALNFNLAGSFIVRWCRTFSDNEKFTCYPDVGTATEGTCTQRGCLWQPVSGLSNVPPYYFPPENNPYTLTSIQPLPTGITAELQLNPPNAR
Sequence of Sucrase-isomaltase, intestinal (Rattus norvegicus) (P23739 1014-1841 limits assumed): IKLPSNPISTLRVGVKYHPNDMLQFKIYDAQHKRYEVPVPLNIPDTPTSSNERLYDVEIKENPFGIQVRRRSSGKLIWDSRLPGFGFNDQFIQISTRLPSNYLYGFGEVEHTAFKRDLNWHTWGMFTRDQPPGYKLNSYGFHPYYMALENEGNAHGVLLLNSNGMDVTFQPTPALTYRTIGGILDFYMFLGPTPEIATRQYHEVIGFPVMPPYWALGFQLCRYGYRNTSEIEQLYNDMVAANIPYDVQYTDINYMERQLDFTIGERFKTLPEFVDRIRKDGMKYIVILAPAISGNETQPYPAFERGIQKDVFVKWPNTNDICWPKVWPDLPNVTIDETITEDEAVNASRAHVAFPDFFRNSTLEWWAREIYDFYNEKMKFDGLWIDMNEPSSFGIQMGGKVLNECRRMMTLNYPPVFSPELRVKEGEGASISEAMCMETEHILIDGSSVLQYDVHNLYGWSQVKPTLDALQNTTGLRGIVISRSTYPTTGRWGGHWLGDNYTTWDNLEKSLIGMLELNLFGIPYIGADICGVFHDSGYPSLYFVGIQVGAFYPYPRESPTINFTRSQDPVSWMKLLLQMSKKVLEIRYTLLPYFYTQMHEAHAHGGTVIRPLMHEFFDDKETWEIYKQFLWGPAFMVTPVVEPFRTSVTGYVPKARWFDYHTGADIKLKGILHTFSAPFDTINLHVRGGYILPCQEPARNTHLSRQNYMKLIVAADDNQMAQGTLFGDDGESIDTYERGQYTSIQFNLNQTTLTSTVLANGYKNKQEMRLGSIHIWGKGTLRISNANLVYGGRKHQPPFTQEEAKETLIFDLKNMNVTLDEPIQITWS

| inhibition [1] | inhibition [2] | inhibition [3] | inhibition [4] | inhibition [5] | IC50 [6] | Structure (SMILES) |
| --- | --- | --- | --- | --- | --- | --- |
| – | – | < 50% | < 50% | – | 880 µM | OC[C@H]1NC[C@H](O)[C@@H](O)[C@@H]1O [DUVOGLUSTAT] |
| < 50% | < 50% | < 50% | < 50% | < 50% | – | OC[C@@H]1NC[C@@H](O)[C@@H](O)[C@@H]1O |
| < 50% | < 50% | < 50% | < 50% | < 50% | 67 µM | OC[C@H]1NC[C@@H](O)[C@H](O)[C@H]1O |
| < 50% | < 50% | < 50% | < 50% | < 50% | 13 µM | OC[C@@H]1NC[C@@H](O)[C@H](O)[C@@H]1O |
| < 50% | < 50% | < 50% | < 50% | < 50% | 260 µM | OC[C@H]1NC[C@H](O)[C@H](O)[C@@H]1O |
| < 50% | < 50% | < 50% | < 50% | < 50% | 160 µM | OC[C@H]1NC[C@H](O)[C@H](O)[C@H]1O |
| < 50% | < 50% | < 50% | < 50% | – | – | OC[C@H]1NC[C@@H](O)[C@@H](O)[C@@H]1O [DEOXYMANNOJIRIMYCIN] |

Second part, the molecule before the results:

| Structure (SMILES) | inhibition [1] | inhibition [2] | inhibition [3] | inhibition [4] | inhibition [5] | IC50 [6] |
| --- | --- | --- | --- | --- | --- | --- |
| OC[C@@H]1NC[C@@H](O)[C@H](O)[C@H]1O | < 50% | < 50% | < 50% | < 50% | – | – |
| OC[C@@H]1NC[C@H](O)[C@H](O)[C@H]1O | < 50% | < 50% | < 50% | < 50% | < 50% | – |
| OC[C@@H]1NC[C@@H](O)[C@@H](O)[C@H]1O | < 50% | < 50% | – | < 50% | < 50% | 290 µM |
| OC[C@@H]1NC[C@H](O)[C@@H](O)[C@@H]1O | < 50% | < 50% | < 50% | < 50% | < 50% | – |
| OC[C@H]1NC[C@H](O)[C@@H](O)[C@H]1O | < 50% | < 50% | < 50% | – | < 50% | 0.003 µM |
